# Assay results published in patent US8410150B2, “Inhibitors of carnitine palmitoyltransferase and treating cancer” (University Health Network, priority 2007, dated 2013).
# Target: T1, human CPT1A (Homo sapiens, UniProt P50416)
# T1 construct: made in house; host or cells: Saccharomyces cerevisiae (pESC-trp) or cultured mammalian cells (pCDNA3.1); mitochondrial extract
# T1 sequence (P50416 1-773): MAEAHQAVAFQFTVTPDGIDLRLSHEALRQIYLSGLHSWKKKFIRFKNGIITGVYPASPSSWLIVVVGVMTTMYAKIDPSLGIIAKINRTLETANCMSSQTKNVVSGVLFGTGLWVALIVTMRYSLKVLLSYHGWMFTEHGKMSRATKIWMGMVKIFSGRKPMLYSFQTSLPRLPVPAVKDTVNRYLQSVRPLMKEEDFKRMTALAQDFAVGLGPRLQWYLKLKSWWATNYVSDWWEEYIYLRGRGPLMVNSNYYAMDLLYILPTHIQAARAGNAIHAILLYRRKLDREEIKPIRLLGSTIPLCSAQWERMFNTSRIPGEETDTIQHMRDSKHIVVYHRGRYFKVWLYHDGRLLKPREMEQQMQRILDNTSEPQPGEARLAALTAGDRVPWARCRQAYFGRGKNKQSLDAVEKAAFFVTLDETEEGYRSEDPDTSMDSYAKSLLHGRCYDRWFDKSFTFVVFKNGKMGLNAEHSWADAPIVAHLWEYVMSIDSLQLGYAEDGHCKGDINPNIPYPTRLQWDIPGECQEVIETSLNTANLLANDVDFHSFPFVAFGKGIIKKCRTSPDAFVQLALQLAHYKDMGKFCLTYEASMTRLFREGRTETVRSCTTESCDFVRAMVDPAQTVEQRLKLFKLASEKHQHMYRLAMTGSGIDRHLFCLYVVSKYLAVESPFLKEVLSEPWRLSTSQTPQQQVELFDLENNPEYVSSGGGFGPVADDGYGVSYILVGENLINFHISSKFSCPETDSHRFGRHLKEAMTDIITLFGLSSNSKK
# Experiment: Human CPT1A LC/MS assay
# Assay type: biochemical
# Conditions: dose response assay, n=17
# From the text: Nucleotide sequences encoding human CPT1 enzymes were individually cloned into the yeast expression vector pESC-trp at the Cla1 (5′ terminus) and Pac1 (3′ terminus) restriction sites by PCR amplification of the open reading frame using oligonucleotide primers designed to encode the wild-type CPT1 protein sequence. Standard molecular biology techniques were used to transform and express the CPT1 proteins in the yeast Saccharomyces cerevisiae. The yeast cells were lysed by enzymatic degradation of the cell wall by Zymolase, and the mitochondria were isolated by standard biochemical techniques. The integrity of the isolated mitochondria was monitored by determining the activity of succinate dehydrogenase in the mitochondrial preparations. The mitochondrial extracts were stored at −80° C. in buffer containing 10 mM HEPES pH 7.4 and 250 mM sucrose.
# Human CPT1 (A, B, C) genes were additionally cloned into the pCDNA3.1 vector individually for expression in cultured mammalian cells. Cells expressing the exogenous CPT1A were identified and grown under standard conditions. Mammalian cells were harvested, and mitochondrial extracts prepared using standard biochemical methods. The mitochondrial extracts were stored at −80° C. in buffer containing 10 mM HEPES pH 7.4 and 250 mM sucrose.
# Assays were performed in 96-well plate format. Each 100 μL reaction contained 40 mM KCl, 50 mM TrisHCl pH 7.5, and 250 mM mannitol (Assay Buffer), and 1.6 μg protein of an extract, 20 μM palmitoyl-CoA, 50 μM L-carnitine, and 10 ug/mL BSA. Reactions were incubated at room temperature and stopped after 10 minutes by extraction with 200 μL of water saturated n-butanol containing myristoyl carnitine (500 nM) as an internal standard. The samples were thoroughly mixed, and the phases separated by centrifugation. Samples were prepared for analysis with a 10 fold dilution of the n-butanol phase containing the reaction product palmitoyl carnitine into a 50:50 (acetonitrile:water) solvent for analysis. […] of prepared sample was separated on a Phenomenex Jupiter 5μ C4 reverse-phase column using an Agilent 1100 HPLC with a gradient from 50% acetonitrile (0.5% acetic acid) to 100% acetonitrile and quantified by detection with a Bruker Esquire 3000plus mass spectrometer. The abundance of the palmitoyl carnitine product was determined relative to the internal standard and the actual quantity of palmitoyl carnitine can be determined from a standard curve prepared using the n-butanol solution containing the internal standard.
# Compounds were evaluated in two formats, a screening format, and a dose response format. The screening format was performed by adding 25 μL compound in 20% DMSO and Assay Buffer to 25 μL of extract containing […] and Assay Buffer, followed by a 10 minute incubation at room temperature. 50 μL of 40 μM palmitoyl-CoA in Assay Buffer was added to the reaction mixture, mixed and incubated for 10 minutes at room temperature. A negative control for activity was also performed where the carnitine was omitted from the reaction. A positive control for activity was also performed by omitting compound from the solution containing 20% DMSO and Assay Buffer. The reaction mixture was extracted and analyzed as described above. The inhibition by compound was determined by comparing the control relative activity to the relative activity observed in wells containing the compound. Relative activity was determined by subtracting the relative intensity (area palmitoyl carnitine/area myristoyl carnitine) observed in the negative control from the relative intensity observed in the experimental well, and dividing by the relative activity observed in the positive control.
# [formula] Compound characterization by dose response format was performed using the above described assay conditions and a 16 point compound titration in 2 fold compound dilution steps. The DMSO concentration was kept constant at 20% (v/v) for all compound concentrations.
row,IC50 [µM],SMILES
1,7 ± 2.5,"C[N+](C)(C)C[C@H](N)CC(=O)[O-] [L-aminocarnitine, (R)-3-amino-4-(trimethylammonio)butanoate, reference compound]"

# Same assay, conditions: human CPT1A LC/MS assay, dose response format
row,IC50 [µM],SMILES
1,> 2500,"C[N+](C)(C)C[C@@H](CC(=O)O)NC(=O)Nc1ccccc1I [Example S99, (R)-3-carboxy-2-(3-(2-iodophenyl)ureido)-N,N,N-trimethylpropan-1-aminium]"
2,1 to 10,"C[N+](C)(C)C[C@@H](CC(=O)[O-])NC(=O)c1ccc(CSCc2ccccc2)o1 [Example S56, (R)-3-(5-(benzylthiomethyl)furan-2-carboxamido)-4-(trimethylammonio)-butanoate]"
3,100 to 1000,"C[N+](C)(C)C[C@@H](CC(=O)[O-])NC(=O)Nc1cccc(-n2cccc2)c1 [Example S84, (R)-3-(3-(3-(1H-pyrrol-1-yl)phenyl)ureido)-4-(trimethylammonio)butanoate]"
4,> 2500,"Cc1nc(-c2cnccn2)sc1C(=O)N[C@H](CC(=O)[O-])C[N+](C)(C)C [Example S51, (R)-3-(4-methyl-2-(pyrazin-2-yl)thiazole-5-carboxamido)-4-(trimethyl-ammonio)butanoate]"
5,100 to 1000,"C[N+](C)(C)C[C@@H](CC(=O)[O-])NC(=O)c1ccc(Oc2ccccc2)nc1 [Example S50, (R)-3-(6-phenoxynicotinamido)-4-(trimethylammonio)butanoate]"
6,100 to 1000,"Cc1ccoc1C(=O)Nc1ccc(C(=O)N[C@H](CC(=O)[O-])C[N+](C)(C)C)cc1 [Example S5, (R)-3-(4-(3-methylfuran-2-carboxamido)benzamido)-4-(trimethylammonio)-butanoate]"
7,100 to 1000,"C[N+](C)(C)C[C@@H](CC(=O)[O-])NC(=O)Nc1ccc(-c2cccs2)cc1 [Example S11, (R)-3-(3-(4-(thiophen-2-yl)phenyl)ureido)-4-(trimethylammonio)butanoate]"

# Further lines, the compound ahead of its results:
row,SMILES,IC50 [µM]
1,"Cc1cccc(C#Cc2ccc(S(=O)(=O)N[C@H](CC(=O)O)C[N+](C)(C)C)s2)c1 [Example S76, (R)-3-carboxy-N,N,N-trimethyl-2-(5-(m-tolylethynyl)thiophene-2-sulfonamido)propan-1-aminium 2,2,2-trifluoroacetate]",100 to 1000
2,"CCCCCCc1ccc(CCc2ccc(C(=O)N[C@H](CC(=O)O)C[N+](C)(C)C)o2)s1 [Example S119, (R)-3-(5-(2-(5-hexylthiophen-2-yl)ethyl)furan-2-carboxamido)-4-(trimethylammonio)butanoate]",≤ 1
3,"CCCCCCCCOC(=O)Nc1ccc(S(=O)(=O)N[C@H](CC(=O)O)C[N+](C)(C)C)cc1 [Example S73, (R)-3-carboxy-N,N,N-trimethyl-2-(4-(octyloxycarbonylamino)phenyl-sulfonamido)propan-1-aminium 2,2,2-trifluoroacetate]",10 to 100
4,"C[N+](C)(C)C[C@@H](CC(=O)O)NS(=O)(=O)c1ccc(CCc2ccccc2)s1 [Example S79, (R)-3-carboxy-N,N,N-trimethyl-2-(5-phenethylthiophene-2-sulfonamido)-propan-1-aminium 2,2,2-trifluoroacetate]",10 to 100
5,"CCCCCc1ccc(CCc2ccc(C(=O)N[C@H](CC(=O)O)C[N+](C)(C)C)s2)cc1 [Example S102, (R)-3-carboxy-N,N,N-trimethyl-2-(5-(4-pentylphenethyl)thiophene-2-carboxamido)propan-1-aminium 2,2,2-trifluoroacetate]",≤ 1
6,"CCCCCc1ccc(C#Cc2ccc(S(=O)(=O)N[C@H](CC(=O)O)C[N+](C)(C)C)s2)cc1 [Example S82, (R)-3-carboxy-N,N,N-trimethyl-2-(5-((4-pentylphenyl)-ethynyl)thiophene-2-sulfonamido)propan-1-aminium 2,2,2-trifluoroacetate]",1 to 10
7,"C[N+](C)(C)C[C@@H](CC(=O)[O-])NC(=O)Nc1cc(C(F)(F)F)ccc1Cl [Example S85, (R)-3-(3-(2-chloro-5-(trifluoromethyl)phenyl)ureido)-4-(trimethyl-ammonio)butanoate]",1000 to 2500
